Experimental data reported in patent publication US10065990B2, “Cyclic peptide compound, and preparation method, pharmaceutical composition and use thereof” (HANGZHOU GUANYU BIO-MEDICAL CO., LTD, priority 2013, dated 2018).
Like-named read-outs stand apart in the source and are kept apart here.

Key:
[1] = system: DU145 (human prostate cancer cells); assay: MTT cancer cell growth inhibition; format: cell-based; details: MTT, 72 hours incubation, read-out: GI50 Du1
Description: (§1) MTT assay principle is yellow MTT can penetrate membrane into the cell, succinic dehydrogenase of the mitochondria in living cells can make exogenous MTT reduction of insoluble in water of blue-violet acicular formazan for crystallization and deposition in the cell, crystallization can be dissolved dimethyl sulfoxide (DMSO) solution, detected its absorbance at 490 nm/570 nm wavelength by enzyme-linked immunosorbent assay, which can reflect the number of cells.
(§2) Using DMEM+10% FBS culture medium or using 1640+10% FBS culture, respectively.
(§3) a) Cells were seeded in 96-well plates with the inoculation of 1500/well, 190 μl/hole, 37° C., 5% of CO2 incubator overnight;
(§4) b) The next day each well was added 10 μl of different drugs. The final concentration of drug was 10^−5˜10^−10M, three parallel holes; 37° C., 5% CO2 culture incubator for 72 hours incubation;
(§5) c) Per well was added 20 μl 5 mg/ml of MTT, 37° C., 5% CO2 culture incubator for 4 hours incubation;
(§6) d) The supernatant was discarded. Each well was added 100 μl of DMSO and oscillation;
(§7) e) 570 nm readings. Calculate cell viability. GI50 calculation based on the results.

[2] = system: lncap (prostate cancer cells); assay: MTT cancer cell growth inhibition; format: cell-based; details: MTT, 72 hours incubation, read-out: GI50 lnca
Description: as §1, §2, §3, §4, §5, §6, §7

[3] = system: A549 (human lung cancer cells); assay: MTT cancer cell growth inhibition; format: cell-based; details: MTT, 72 hours incubation, read-out: GI50 A54
Description: as §1, §2, §3, §4, §5, §6, §7

[4] = system: BGC-823 (human gastric cancer cells); assay: MTT cancer cell growth inhibition; format: cell-based; details: Homo sapiens, BGC-823, 72 h, MTT, 72 hours incubation, read-out: GI50 BG
Description: as §1, §2, §3, §4, §5, §6, §7

[5] = system: Bel-7402 (human hepatoma cells); assay: MTT cancer cell growth inhibition; format: cell-based; details: MTT, 72 hours incubation, Bel-7402 cells, read-out: GI50 Bel-7402
Description: as §1, §2, §3, §4, §5, §6, §7

[6] = system: KBM5-T315I (human chronic myelogenous leukemia); assay: MTT cancer cell growth inhibition; format: cell-based; details: MTT, 72 hours incubation, KBM5-T315I cells, read-out: GI50 KBM5-T315I
Description: as §1, §2, §3, §4, §5, §6, §7

[7] = system: H1975 (non-small cell lung adenocarcinoma); assay: MTT cancer cell growth inhibition; format: cell-based; details: Homo sapiens, NCI-H1975, 72 h, MTT, 72 hours incubation, H1975 cells; read-out: GI50 H1975
Description: as §1, §2, §3, §4, §5, §6, §7

[8] = system: KBM-5 (human chronic myelogenous leukemia); assay: MTT cancer cell growth inhibition; format: cell-based; details: Homo sapiens, KBM5, 72 h, MTT, 72 hours incubation, KBM-5 cells; read-out: GI50 KBM-5
Description: as §1, §2, §3, §4, §5, §6, §7

[9] = system: PANC-1 (Pac-1, human pancreatic cancer cells); assay: MTT cancer cell growth inhibition; format: cell-based; details: Homo sapiens, PANC-1, 72 h, MTT, 72 hours incubation, read-out: GI50 PAN
Description: as §1, §2, §3, §4, §5, §6, §7

[10] = system: K562 (human leukemia cells); assay: MTT cancer cell growth inhibition; format: cell-based; details: MTT, 72 hours incubation, K562 cells, read-out: GI50 K562
Description: as §1, §2, §3, §4, §5, §6, §7

[11] = system: MCF-7 (human breast cancer cells); assay: MTT cancer cell growth inhibition; format: cell-based; details: Homo sapiens, MCF7, 72 h, 72 hours incubation, read-out: GI50 MCF
Description: as §1, §2, §3, §4, §5, §6, §7

[12] = system: Huh-7 (human hepatoma cells); assay: MTT cancer cell growth inhibition; format: cell-based; details: Homo sapiens, Huh-7, 72 h, MTT, 72 hours incubation, Huh-7 cells; read-out: GI50 Huh-7
Description: as §1, §2, §3, §4, §5, §6, §7

[13] = system: U937 (human leukemia cells); assay: MTT cancer cell growth inhibition; format: cell-based; details: Homo sapiens, U-937, 72 h, MTT, 72 hours incubation, read-out: GI50 U93
Description: as §1, §2, §3, §4, §5, §6, §7

[14] = system: MOLT-4 (human acute lymphoblastic leukemia cells); assay: MTT cancer cell growth inhibition; format: cell-based; details: MTT, 72 hours incubation, read-out: GI50 Mol
Description: as §1, §2, §3, §4, §5, §6, §7

[15] = system: N-87 (human gastric cancer cells); assay: MTT cancer cell growth inhibition; format: cell-based; details: Homo sapiens, 72 h, MTT, 72 hours incubation, N-87 cells; read-out: GI50 N-87
Description: as §1, §2, §3, §4, §5, §6, §7

[16] = system: SGC-7901 (human gastric cancer cells); assay: MTT cancer cell growth inhibition; format: cell-based; details: Homo sapiens, SGC-7901, 72 h, MTT, 72 hours incubation, SGC-7901 cells; read-out: GI50 SGC-7901
Description: as §1, §2, §3, §4, §5, §6, §7

[17] = system: HCC827 (human non-small cell lung cancer cells); assay: MTT cancer cell growth inhibition; format: cell-based; details: Homo sapiens, HCC827, 72 h, MTT, 72 hours incubation, HCC827 cells; read-out: GI50 HCC827
Description: as §1, §2, §3, §4, §5, §6, §7

[18] = system: MDA-MB-231 (breast cancer cells); assay: MTT cancer cell growth inhibition; format: cell-based
Description: as §1, §2, §3, §4, §5, §6, §7

[19] = system: Hela (human cervical cancer cells); assay: MTT cancer cell growth inhibition; format: cell-based; details: Homo sapiens, HeLa, 72 h, MTT, 72 hours incubation, read-out: GI50 Hela
Description: as §1, §2, §3, §4, §5, §6, §7

[20] = system: HT1080 (human fibrosarcoma cells); assay: MTT cancer cell growth inhibition; format: cell-based; details: MTT, 72 hours incubation, read-out: GI50 HT1
Description: as §1, §2, §3, §4, §5, §6, §7

[21] = target: T1, HDAC7 (Homo sapiens, UniProt Q8WUI4); assay: HDAC biochemical activity measurement (fluorescent substrate deacetylation);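 further: fluorogenic deacetylation assay using acetyl-lysine substrate at 20 µM, enzyme and compound incubated 30 min at 37 °C, then developer added, fluorescence read at 360/460 nm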; details: HDAC7; 37° C. 30 minutes
T1 sequence (Q8WUI4 1-952): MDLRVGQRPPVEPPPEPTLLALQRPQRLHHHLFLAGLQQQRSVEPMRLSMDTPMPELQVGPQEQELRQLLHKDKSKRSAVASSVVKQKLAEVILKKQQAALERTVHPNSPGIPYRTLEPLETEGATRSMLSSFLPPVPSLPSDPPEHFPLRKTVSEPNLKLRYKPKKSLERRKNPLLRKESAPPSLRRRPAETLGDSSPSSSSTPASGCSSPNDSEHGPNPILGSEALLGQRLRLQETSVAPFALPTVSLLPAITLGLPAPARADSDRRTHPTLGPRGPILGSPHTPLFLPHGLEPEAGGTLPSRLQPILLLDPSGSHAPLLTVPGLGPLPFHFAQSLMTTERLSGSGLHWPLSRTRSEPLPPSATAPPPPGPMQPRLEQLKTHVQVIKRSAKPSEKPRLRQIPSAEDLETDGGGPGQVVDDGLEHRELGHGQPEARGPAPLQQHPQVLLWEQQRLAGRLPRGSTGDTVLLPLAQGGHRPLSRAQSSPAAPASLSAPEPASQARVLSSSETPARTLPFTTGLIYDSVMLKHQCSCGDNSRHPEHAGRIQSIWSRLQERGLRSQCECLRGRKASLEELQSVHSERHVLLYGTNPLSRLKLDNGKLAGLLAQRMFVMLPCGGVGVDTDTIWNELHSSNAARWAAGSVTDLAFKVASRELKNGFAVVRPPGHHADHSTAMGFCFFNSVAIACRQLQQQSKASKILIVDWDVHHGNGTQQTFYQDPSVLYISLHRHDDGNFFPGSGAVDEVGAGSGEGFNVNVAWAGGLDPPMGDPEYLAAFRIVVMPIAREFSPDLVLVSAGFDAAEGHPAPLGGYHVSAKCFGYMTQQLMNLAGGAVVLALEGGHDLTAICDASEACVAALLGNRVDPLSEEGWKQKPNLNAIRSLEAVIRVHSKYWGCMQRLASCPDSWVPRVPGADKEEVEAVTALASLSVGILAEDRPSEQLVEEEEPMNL

[22] = Homo sapiens, DU-145, 72 h, DU145 cells
[23] = Homo sapiens, LNCaP, 72 h, lncap cells
[24] = Homo sapiens, A549, 72 h, A549 cells
[25] = Homo sapiens, MOLT-4, 72 h, MOLT-4 cells
[26] = Homo sapiens, MDA-MB-231, 72 h, read-out: GI50 MDA-MB-231, MTT, 72 hours incubation, MDA-MB-231 cells
[27] = Homo sapiens, HT-1080, 72 h, HT1080 cells

GI50 [1, 22]	GI50 [2, 23]	GI50 [3, 24]	GI50 ([4]; BGC-823 cells)	GI50 ([5]; Homo sapiens, Bel-7402, 72 h)	GI50 ([6]; Homo sapiens, 72 h)	GI50 [7]	GI50 [8]	GI50 ([10]; Homo sapiens, K562, 72 h)	GI50 [12]	GI50 [15]	GI50 [16]	GI50 [17]	GI50 [18, 26]	IC50 HDAC7 [21]	GI50 [4]	GI50 [9]	GI50 [11]	GI50 [13]	GI50 [19]	SMILES	also measured
60 nM	20 nM	20 nM	50 nM	72 nM	55 nM	35 nM	49 nM	23 nM	17 nM	19 nM	53 nM	45 nM	51 nM	no activity	–	–	–	–	–	C/C=C1\NC(=O)c2cc(SC)cc(n2)CNC(=O)C[C@@H](/C=C/CCS)OC(=O)[C@H](C(C)C)NC1=O [Compound 227]	GI50 ([9]; PANC-1 cells): 10 nM; GI50 ([11]; MCF-7 cells): 20 nM; GI50 ([13]; U937 cells): 40 nM; GI50 [14, 25]: 60 nM; GI50 ([19]; Hela cells): 70 nM; GI50 [20, 27]: 70 nM
–	–	–	–	–	–	28 nM	24 nM	–	26 nM	57 nM	28 nM	52 nM	–	no activity	40 nM	70 nM	100 nM	40 nM	20 nM	C=C1NC(=O)c2cc(F)cc(n2)CNC(=O)C[C@@H](/C=C/CCS)OC(=O)[C@H](C(C)C)NC1=O [Compound 132]	GI50 [1]: 150 nM; GI50 [2]: 30 nM; GI50 [3]: 20 nM; GI50 [5]: 77 nM; GI50 [6]: 43 nM; GI50 [10]: 48 nM; GI50 [14]: 30 nM; GI50 ([18]; read-out: GI50 MDA-MB-231, MTT, 72 hours incubation, MDA-MB-231 cells): 16 nM; GI50 [20]: 30 nM
50 nM	90 nM	90 nM	20 nM	54 nM	43 nM	38 nM	26 nM	81 nM	45 nM	42 nM	14 nM	79 nM	91 nM	no activity	–	–	–	–	–	C/C=C1\NC(=O)c2nc(ccc2SC)CNC(=O)C[C@@H](/C=C/CCSC(C)=O)OC(=O)[C@H](CCCCNC(=O)OCC2c3ccccc3-c3ccccc32)NC1=O [Compound 195]	GI50 ([9]; PANC-1 cells): 30 nM; GI50 ([11]; MCF-7 cells): 30 nM; GI50 ([13]; U937 cells): 50 nM; GI50 [14, 25]: 20 nM; GI50 ([19]; Hela cells): 60 nM; GI50 [20, 27]: 30 nM
–	–	–	–	58 nM	43 nM	38 nM	36 nM	31 nM	28 nM	67 nM	17 nM	37 nM	26 nM	no activity	30 nM	50 nM	70 nM	50 nM	80 nM	C=C1NC(=O)c2cc(F)cc(n2)CNC(=O)C[C@@H](/C=C/CCS)OC(=O)[C@H](C)NC1=O [Compound 141]	GI50 ([1]; Homo sapiens, DU-145, 72 h): 70 nM; GI50 ([2]; Homo sapiens, LNCaP, 72 h): 80 nM; GI50 ([3]; Homo sapiens, A549, 72 h): 50 nM; GI50 ([14]; Homo sapiens, MOLT-4, 72 h): 80 nM; GI50 ([20]; Homo sapiens, HT-1080, 72 h): 80 nM
–	–	–	–	73 nM	35 nM	59 nM	73 nM	84 nM	38 nM	42 nM	53 nM	66 nM	51 nM	no activity	70 nM	130 nM	50 nM	50 nM	50 nM	C=C1NC(=O)c2ccc(F)c(n2)CNC(=O)C[C@@H](/C=C/CCS)OC(=O)[C@H](C)NC1=O [Compound 142]	GI50 ([1]; Homo sapiens, DU-145, 72 h): 50 nM; GI50 ([2]; Homo sapiens, LNCaP, 72 h): 110 nM; GI50 ([3]; Homo sapiens, A549, 72 h): 130 nM; GI50 ([14]; Homo sapiens, MOLT-4, 72 h): 20 nM; GI50 ([20]; Homo sapiens, HT-1080, 72 h): 70 nM
